# Laboratory results as given in US8815947B2, “Methods of treating metabolic disorders” (Case Western Reserve University, priority 2007, dated 2014).
# Where two headings read alike, the source gives them in different places.
# How the values were obtained:
# [1] = test system: PPARβ/δ target genes FIAF, ADRP, and PDK-1; experiment: Q-PCR of endogenous PPARβ/δ target genes in HaCaT cells; type: cell-based, human; settings: for expression of mRNA of PPARβ/δ target genes FIAF, ADRP and PDK-1: normalized to 18s mRNA
# Protocol: (§1) FIG. 1C illustrates graphs showing the levels of mRNA of the PPARβ/δ target genes FIAF, ADRP, and PDK-1 expressed from HaCaT cells treated with the denoted ligands (0.1 μM, 4 hr). Levels of mRNA of the PPARβ/δ target genes FIAF, ADRP, and PDK-1 were analyzed by Q-PCR and normalized to 18s mRNA. FIG. 1D illustrate a graph showing the level of ADRP mRNA in HaCaT cells that were transfected with control siRNA or PPARβ/δ siRNA (24 hr.), and then treated with the denoted ligands (0.1 μM, 4 hr). ADRP mRNA was analyzed by QPCR and normalized to 18s mRNA. […] FIG. 1F illustrates a graph of the total activation of HaCaT cells transfected with a RARE-driven luciferase reporter. Cells were treated with RA at the denoted concentrations (15 hr), lysed, and luciferase activity measured and corrected for β-galactosidase activity. Data were normalized to the basal activity. […] FIG. 1G illustrates a graph of the level of expression of mRNA of the RAR target gene Cyp26α in cells that were treated with the denoted ligands. Expression of mRNA of the RAR target gene Cyp26α was analyzed by Q-PCR and normalized to 18s mRNA.
# Quantitative real-time PCR (Q-PCR). RNA was extracted and cDNA generated using Gene Amp RNA PCR (Applied Biosystems, Foster City, Calif.). Q-PCR analyses for PDK-1 were conducted using TaqMan chemistry and Assays on Demand probes (Applied Biosystems, PDK1-Hs00176884_ml, ADRP-Hs00765634_ml, FIAF-Hs00211522_ml), Cyp26a-Hs01075671_gl, BTG2-Hs00198887_ml, cyclin D1 0 Hs00277039-ml. […] Analyses were carried out using the relative standard curve method (Applied Biosystems Technical Bulletin no. 2).
# [2] = test system: PPAR β/δ target genes PDK1 and FIAF; experiment: Real-time PCR of PDK1 and FIAF in cultured adipocytes; type: cell-based
# Source text: We then used real-time PCR to examine the effects of these ligands on the expression of PDK1 and another known PPAR β/δ target gene, FIAF.
# GFP-FABP5 = biological target: T1, GFP-FABP5 (Homo sapiens, UniProt Q01469); experiment: Confocal fluorescence microscopy of GFP-FABP5 in live COS-7 cells; type: cell-based; settings: ligand 1 μM, 30 min
# T1 construct: expressed in transfected cells; host or cells: COS-7
# Protocol: Images were acquired from live cells before and after a 30 min. treatment with RA (1 μM). […] Forty cells of each treatment group were analyzed (mean±SEM).
# Confocal fluorescence microscopy. COS-7 cells were plated in 35 mm glass bottom microwell dishes (Mattek) in DMEM containing 5% charcoal-treated FBS (75,000 cells per plate), grown for 12 hr. and transfected using Fugene (Roche) with an expression vector harboring GFP-tagged FABP5 (EGFP, 250 ng DNA per plate). Following a 48 hr incubation, medium was replaced with serum-free DMEM, and live cells were imaged using a Leica TCS SP2 confocal microscope equipped with a 40× oil immersion lens. After imaging, cells were treated with ligands (1 μM), incubated at 37° C. for 30 min and imaged again. An average of 40 cells were analyzed using ImageJ (National Institute of Health).
# Akt = experiment: Immunoblots of phospho-Akt in HaCaT cells; type: cell-based, human; settings: ligand 0.1 μM, 12 hr, immunoblot
# Protocol: (§2) FIG. 1B illustrates a graph showing the results of the total activation of cells cotransfected with either control siRNA or siRNA for PPARβ/δ, and then treated with RA at the denoted concentrations. FIG. 1C illustrates graphs showing the levels of mRNA of the PPARβ/δ target genes FIAF, ADRP, and PDK-1 expressed from HaCaT cells treated with the denoted ligands (0.1 μM, 4 hr). Levels of mRNA of the PPARβ/δ target genes FIAF, ADRP, and PDK-1 were analyzed by Q-PCR and normalized to 18s mRNA. FIG. 1D illustrate a graph showing the level of ADRP mRNA in HaCaT cells that were transfected with control siRNA or PPARβ/δ siRNA (24 hr.), and then treated with the denoted ligands (0.1 μM, 4 hr). ADRP mRNA was analyzed by QPCR and normalized to 18s mRNA. Data are mean±SEM, n=3. FIG. 1E illustrates immunoblots of […], total Akt, and β-tubulin in cells treated with denoted ligands (0.1 μM, 12 hr). Data from a representative experiment, which was repeated 4 times with similar results are shown. FIG. 1F illustrates a graph of the total activation of HaCaT cells transfected with a RARE-driven luciferase reporter. Cells were treated with RA at the denoted concentrations (15 hr), lysed, and luciferase activity measured and corrected for β-galactosidase activity. […] Expression of mRNA of the RAR target gene Cyp26α was analyzed by Q-PCR and normalized to 18s mRNA. […]
# RAR = experiment: Transactivation assay, RARE-driven luciferase reporter in HaCaT cells; type: cell-based, human; settings: RA 15 hr
# Protocol: as §1
# Transactivation assays. Cells were cultured in 24-well plates and co-transfected with (PPRE)3-luciferase reporter vector (100 ng), a vector harboring the appropriate iLBP (in pCDNA 3.1, 200 ng), and pCH110, a β-galactosidase expression plasmid (50 ng). […]
# RAR target gene Cyp26α = experiment: Q-PCR of RAR target gene Cyp26α in HaCaT cells; type: cell-based, human; settings: normalized to 18s mRNA
# Protocol: as §2, with “FIG. 1F illustrates a graph of the total activation of HaCaT cells transfected with a RARE-driven luciferase reporter.” left out
# Quantitative real-time PCR (Q-PCR). […]
# [3] = test system: obese mice fed a high fat/high sucrose diet; experiment: Diet-induced mouse model of obesity, systemic RA treatment; type: in vivo
# Protocol: We have now completed a pilot experiment to examine the notion that all-trans-retinoic acid (RA) suppresses obesity and insulin resistance. Experiments were carried out using both cultured adipocytes and a diet-induced mouse model of obesity.
# For the in vivo experiments, C57BU6J mice were fed a high fat/high sucrose diet for 16 weeks, when they weighed 1.5 fold more than a cohort fed a standard diet. […] Obese mice were separated into two groups. Both groups were continually maintained on the high fat/high sucrose diet, and one of them was systemically treated with RA.
# An important measure of insulin sensitivity is the ability of an animal to clear glucose from plasma. This parameter is assessed by glucose tolerance tests (GTT) in which glucose is administered to the mice and the kinetics of its clearance from blood measured.
# PPARβ/δ [4] = biological target: T2, PPARβ/δ (Homo sapiens, UniProt Q03181); experiment: Transactivation assay, PPRE-driven luciferase reporter in HaCaT cells; type: cell-based; parameters: endogenous in cells; host or cells: HaCaT
# T2 sequence (Q03181 1-441): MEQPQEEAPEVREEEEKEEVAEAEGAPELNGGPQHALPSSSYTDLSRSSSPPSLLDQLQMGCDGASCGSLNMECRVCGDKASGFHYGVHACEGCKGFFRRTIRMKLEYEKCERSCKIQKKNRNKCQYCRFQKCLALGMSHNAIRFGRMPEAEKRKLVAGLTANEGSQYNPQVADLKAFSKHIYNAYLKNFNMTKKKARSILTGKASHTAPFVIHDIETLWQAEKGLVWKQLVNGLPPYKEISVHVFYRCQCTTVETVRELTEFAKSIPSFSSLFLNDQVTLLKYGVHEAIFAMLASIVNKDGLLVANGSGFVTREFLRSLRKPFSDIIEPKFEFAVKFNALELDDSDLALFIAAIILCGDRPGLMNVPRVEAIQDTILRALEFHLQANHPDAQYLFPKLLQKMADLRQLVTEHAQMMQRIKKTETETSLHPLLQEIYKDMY
# Protocol: The ability of RA to activate PPARβ/δ in the human keratinocyte cell line HaCaT was examined. Transactivation assays were conducted in HaCaT cells transfected with a PPRE-driven luciferase reporter. Cells were treated with the ligands denoted in FIG. 1 for 15 hours, lysed and luciferase activity was measured and corrected for β-galactosidase activity. Data was normalized to the basal activity. Data are mean±SEM, n=3
# (§3) Transactivation assays. Cells were cultured in 24-well plates and co-transfected with (PPRE)3-luciferase reporter vector (100 ng), a vector harboring the appropriate iLBP (in pCDNA 3.1, 200 ng), and pCH110, a β-galactosidase expression plasmid (50 ng). In some experiments, an expression vector encoding RAR or PPARβ/δ (in pSG5, 50 ng) was cotransfected. Transfections were carried out using Fugene (Roche Diagnostics Corporation) according to the protocol of the manufacturer. Twenty-four hours following transfection, medium was replaced by DMEM, and ligands were added (RA—in ethanol, other ligands—in dimethylsulfoxide). Following 24 hr of treatment, cells were lysed and lysates assayed for luciferase activity (Luciferase assay system, Promega) which was corrected for β-galactosidase activity. Experiments were carried out in triplicates.
# FABP5 [5] = biological target: T3, FABP5 (Homo sapiens, UniProt Q01469); experiment: Fluorescence-based binding assay (ANS titration and competition); parameters: GST; made in house; host or cells: E. coli BL21
# Target sequence in this assay (Q01469 whole entry, species assumed): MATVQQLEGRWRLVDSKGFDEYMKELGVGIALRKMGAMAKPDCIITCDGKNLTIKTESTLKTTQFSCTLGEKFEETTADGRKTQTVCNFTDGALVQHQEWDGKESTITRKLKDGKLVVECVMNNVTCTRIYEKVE
# Protocol: Binding assays were carried out by fluorescence titrations using a Fluorolog 2 DMIB spectrofluorometer (SPEX Instruments, Edison, N.J.). […] In the first step, Kd for the association of the protein with the fluorescent fatty acid probe ANS was measured. Protein (1 μM) was titrated with ANS from a concentrated solution in ethanol. Ligand binding was monitored by following the increase in the fluorescence of the ligand upon binding to the protein (λex-370 nm; λem-475 nm). Titration curves were analyzed (Norris and Li, 1998) to yield the number of binding sites and Kd. Kds for binding of non-fluorescent ligands were then measured by monitoring their ability to compete with fluorescent probes for binding. […] Kds were extracted from the EC50 of the competition curve and the measured Kd for the probe. Analyses were carried out using Origin 7.5 software (MicroCal Software Inc., Northampton, Mass.).
# PPARβ/δ [6] = biological target: T2, PPARβ/δ; experiment: Transactivation assay in COS-7 cells, PPRE reporter with PPARβ/δ expression vector; type: cell-based; parameters: expressed in transfected cells; host or cells: COS-7; settings: COS-7 cells cotransfected with PPARβ/δ expression vector
# Protocol: as §3
# FABP5 [7] = biological target: T3, FABP5; experiment: Subcellular fractionation and immunoblot of endogenous FABP5 in HaCaT cells; type: cell-based; parameters: To monitor the effects of ligands on the localization of endogenous FABP5 in HaCaT cells; endogenous in cells; host or cells: HaCaT; settings: ligand 1 μM, 30 min, subcellular fractionation
# Target sequence in this assay (Q01469 whole entry): as the sequence (Q01469 whole entry, species assumed) above
# Protocol: FIG. 2C illustrates an immunoblot of HaCaT cells treated with denoted RA or with stearic acid (1 μM, 30 min.). Nuclei were separated from cytosol by subcellular fractionation (Calbiochem ProtoExtract Subcellular Proteome Extraction kit) and analyzed for the presence of FABP5 by immunoblots.
# The subcellular localization of FABP5 was then examined. […] To monitor the effects of ligands on the localization of endogenous FABP5 in HaCaT cells, cells were treated with vehicle, RA, or stearate, subjected to subcellular fractionation, and the presence of FABP5 in cytosol and in nuclei examined by immunoblots (FIG. 2C).
# [8] = obese mice on high fat diet, RA treated
# T1 sequence (Q01469 whole entry): as the sequence (Q01469 whole entry, species assumed) above
smiles,measurement,setting,value
"C/C(=C\c1ccc(C(=O)O)cc1)c1ccc2c(c1)C(C)(C)CCC2(C)C [TTNPB, 4-[(E)-2-(5,6,7,8-Tetrahydro-5,5,8,8-tetramethyl-2-naphthalenyl)-1-propenyl]benzoic acid]","expression of mRNA of PPARβ/δ target genes FIAF, ADRP and PDK-1","[1]; ligand 0.1 μM, 4 hr",little effect
same,expression of FIAF and PDK1 mRNA,[2],down-regulation of the two genes
CCCCCCCCCCCCCCCCCC(=O)O [stearic acid],subcellular distribution of GFP-FABP5 (nuclear/cytoplasmic),GFP-FABP5,did not affect the subcellular distribution
"CC1=C(/C=C/C(C)=C/C=C/C(C)=C/C(=O)O)C(C)(C)CCC1 [RA, all-trans-retinoic acid]",induction of ADRP mRNA after PPARβ/δ siRNA,"[1]; 80% decrease in PPARβ/δ expression, ligand 0.1 μM, 4 hr",significantly hampered
same,induction of ADRP mRNA after FABP5 siRNA,[1]; about 80% decrease in FABP5 protein,markedly attenuated
same,"expression of mRNA of PPARβ/δ target genes FIAF, ADRP and PDK-1","[1]; ligand 0.1 μM, 4 hr",upregulated the expression of mRNA for all three
same,phosphorylation level of Akt,Akt,significantly increased
same,expression of RARE-driven luciferase reporter,RAR,upregulated the expression of a reporter gene construct
same,expression of mRNA for CYP26α,RAR target gene Cyp26α,efficiently upregulated
same,subcellular distribution of GFP-FABP5 (nuclear/cytoplasmic),GFP-FABP5,distinct shift of the protein into the nucleus
same,expression of FIAF and PDK1 mRNA,[2],enhanced the expression of these genes
same,hepatic lipid accumulation (steatosis),[3]; livers of mice fed a high fat diet and treated with RA,all but devoid of lipid stores
same,weight of fat tissue (white adipose tissue),[3]; [8],decreased by over two fold
same,"weights of liver, skeletal muscle or brown adipose tissue (BAT)",[3]; [8],without affecting
same,food consumption,"[3]; obese mice on high fat diet, RA treated vs non-treated cohort",higher than that of the non-treated cohort
same,loss of body weight,"[3]; obese mice on high fat/high sucrose diet, five week RA treatment, 0.16 mg/day systemic",~15%
same,RA-induced PPRE reporter response after PPARβ/δ siRNA,PPARβ/δ [4]; PPARβ/δ expression decreased by about 80% by siRNA,markedly suppressed
same,transcription of the PPRE-driven luciferase reporter,"PPARβ/δ [4]; ligand 15 hours, GW0742/TTNPB 1 μM, RA at several concentrations",enhanced the expression of the PPRE-driven reporter and did so in a dose responsive manner
same,Kd,"FABP5 [5]; mean±SD, n=3, extracted from EC50 of competition curve and Kd of probe, read-out: Kd for FABP5, fluorescence competition titration against ANS",34.8 ± 6.6 nM
same,expression of PPRE-driven reporter,PPARβ/δ [6],enhanced the expression of the PPRE-driven reporter in a dose-responsive manner
same,nuclear localization of endogenous FABP5,FABP5 [7],accumulates in the nucleus
CC1=C(/C=C/C(C)=C\C=C\C(C)=C\C(=O)O)C(C)(C)CCC1 [9-cis-RA],"expression of mRNA of PPARβ/δ target genes FIAF, ADRP and PDK-1","[1]; ligand 0.1 μM, 4 hr",modest response
Cc1cc(SCc2sc(-c3ccc(C(F)(F)F)c(F)c3)nc2C)ccc1OCC(=O)O [GW0742],phosphorylation level of Akt,Akt,significantly increased
same,subcellular distribution of GFP-FABP5 (nuclear/cytoplasmic),GFP-FABP5,distinct shift of the protein into the nucleus
same,Kd,FABP5 [5],42.3 ± 4.5 nM
"O=S(=O)(O)c1cccc2cccc(Nc3ccccc3)c12 [ANS, Anilinonaphtalene-8-sulphonic acid]",Kd,"FABP5 [5]; mean±SD, n=3, protein 1 μM titrated with probe, read-out: Kd for FABP5, direct fluorescence titration",57 ± 7.3 nM
